Where two headings read alike, the source gives them in different places.
Target: T1, CIB1 and αIIb interaction (CIB1-GST : F-αIIb peptide) (Homo sapiens, UniProt Q99828)
T1 construct: made in house; host or cells: BL-21 plus RIL cells (E. coli)
T1 sequence (Q99828 1-191): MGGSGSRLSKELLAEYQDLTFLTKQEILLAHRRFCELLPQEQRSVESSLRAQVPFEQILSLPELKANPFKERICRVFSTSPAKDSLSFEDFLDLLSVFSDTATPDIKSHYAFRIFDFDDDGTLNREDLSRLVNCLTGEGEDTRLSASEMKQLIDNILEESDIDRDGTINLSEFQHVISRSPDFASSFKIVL
Assay: FP assay, 1536-well qHTS format (primary and confirmatory screen)
Format: binding
Details: for Efficacy (%): negative = inhibition; for Curve Class: negative sign = inhibitory curve; for IC50: read-out: IC50

[1] = qHTS primary screen of LOPAC/NPACT libraries
[2] = qHTS primary screen hits, Table S2
[3] = qHTS primary screen hits, Table S2, several classes where COUNT > 1

Row | Structure (SMILES) | Efficacy (%) [1] [%] | Curve Class [1] | IC50 [1] [µM] | Efficacy (%) [2] [%] | IC50 [2] [µM] | other results
1 | COc1ccc(NC(=O)c2ccc(-c3ccc(-c4noc(C)n4)cc3C)cc2)cc1N1CCN(C)CC1.Cl [NCGC00015476-05] | -19 | -2.2 | 17.8 | – | – | –
2 | CC/C(=C(\c1ccc(O)cc1)c1ccc(OCCNC)cc1)c1ccccc1 [NCGC00386714-01] | -33 | -2.4 | 79.4 | – | – | –
3 | COc1cccc(CNc2ccc(S(=O)(=O)Nc3nc(-c4ccccc4)cs3)cc2)c1O.O=C(O)C(F)(F)F [NCGC00346865-01] | – | – | – | -34 | 50.1 | Curve Class [2]: -2.4
4 | N#CC(=C(\N)Sc1ccccc1N)/C(C#N)=C(/N)Sc1ccccc1N [NCGC00094462-03] | -18 | -3 | 20 | – | – | –
5 | CCN(CC)CCOc1ccc(Nc2ncc3cc(-c4c(Cl)cccc4Cl)c(=O)n(C)c3n2)cc1.Cl.Cl.O [NCGC00261745-01] | – | – | – | -36 | 50.1 | Curve Class [2]: -2.2
6 | O=C1CCCC2=C1C(c1n[nH]cc1Br)N=C(Nc1nc3ccccc3o1)N2 (centres unmarked) [NCGC00229723-01] | – | – | – | -18 | 50.1 | Curve Class [2]: -2.4
7 | O=C(N[C@@H](Cc1ccccc1)C(=O)CCl)OCc1ccccc1 [NCGC00093742-04] | -19 | -1.2 | 10 | – | – | –
8 | CC[C@@]1(O)C(=O)OCc2c1cc1n(c2=O)Cc2cc3c(CN(C)C)c(O)ccc3nc2-1 [NCGC00014925-07] | – | – | – | -147 | 24.5 | –
9 | Cl.NS(=O)(=O)c1cccc(Cc2c(-c3ccc(F)c(F)c3)nn(-c3nc(C(=O)O)cs3)c2O)c1 [NCGC00356269-01] | – | – | – | -17 | 50.1 | Curve Class [3]: -2.4
10 | C=C1C(=O)O[C@@H]2[C@H]1[C@H](O)C[C@]1(C)[C@@H](O)CC=C(C)[C@@H]21 [NCGC00180848-02] | -29 | -2.4 | 20 | – | – | –
11 | O=C1NC(=O)/C(=C/c2ccc3c(c2)OC(F)(F)O3)S1 [NCGC00261190-01] | – | – | – | -33 | 17.8 | Curve Class [2]: -1.2
12 | CC1(CO)CCCC2(C)C1C(OC(=O)c1ccccc1)C=C1C(=O)OCC12O (centres unmarked) [NCGC00380390-01] | -28 | -2.4 | 44.7 | – | – | –
13 | CN1CCN(CCCN2c3ccccc3Sc3ccc(C(F)(F)F)cc32)CC1.Cl.Cl [NCGC00261917-01] | -35 | -2.4 | – | – | – | –
14 | Cc1cc(S(=O)(=O)Nc2cnccc2C(=O)Nc2nc(-c3ccccc3)cs2)c(C)o1.O=C(O)C(F)(F)F [NCGC00345029-02] | – | – | – | – | – | Efficacy (%) (qHTS FP screen hits, Table S2): -46%; IC50 (qHTS FP screen hits, Table S2): 38.1 µM
15 | O=C(O)CCCC[P+](c1ccccc1)(c1ccccc1)c1ccccc1.[Br-] [NCGC00261975-01] | – | – | – | -44 | 56.2 | Curve Class [3]: -2.4
16 | CCOC(=O)c1csc(-n2nc(-c3ccc(F)c(F)c3)cc2O)n1 [NCGC00356457-01] | – | – | – | -29 | 56.2 | Curve Class [2]: -2.4
17 | Cc1ccc(CNc2ncnc3ccc(-c4ccc([C@@H](C)O)o4)cc23)o1 [NCGC00189252-01] | – | – | – | – | – | Efficacy (%) (qHTS FP screen hits, Table S2): -27%; IC50 (qHTS FP screen hits, Table S2): 12.6 µM
18 | CN1CCN(c2nc3cc(C(F)(F)F)ccc3n3cccc23)CC1.O=C(O)/C=C\C(=O)O [NCGC00015180-05] | – | – | – | -17 | 44.7 | Curve Class [3]: -2.2
19 | C=C1CC2OC(=O)C(=C)C2C(OC(=O)/C(C)=C\C)CC2(C)OC1=CC2=O (centres unmarked) [NCGC00384607-01] | -25 | -1.4 | 11.2 | – | – | –
20 | COc1ccc(S(=O)(=O)Nc2nc(-c3cccc([N+](=O)[O-])c3)cs2)cc1OC [NCGC00370730-07] | -22 | -1.4 | 22.4 | – | – | –
21 | Nc1ccn(C2CO[C@H](CO)O2)c(=O)n1 (some centres unmarked) [NCGC00183848-01] | – | – | – | -100 | 39.8 | Curve Class [3]: -3
22 | NC(=O)c1cc[n+](CC2=C(C(=O)O)N3C(=O)[C@@H](NC(=O)[C@@H](c4ccccc4)S(=O)(=O)[O-])[C@H]3SC2)cc1 [NCGC00162106-03] | -20 | -2.2 | 50.1 | – | – | –
23 | CN(NC(=O)CC(=O)NN(C)C(=S)c1ccccc1)C(=S)c1ccccc1 [NCGC00183656-09] | -33 | -2.4 | 35.5 | – | – | –
24 | CCCCC1(C2CCCC2)Cc2cc(OCC(=O)O)c(Cl)c(Cl)c2C1=O (stereo in doubt) [NCGC00093872-03] | – | – | – | -41 | 44.7 | Curve Class [2]: -2.2
25 | CCOC(=O)c1nnc(NS(=O)(=O)c2ccc(NC(=O)Cc3ccc(Cl)c(Cl)c3)cc2)s1.O=C(O)C(F)(F)F [NCGC00248354-02] | – | – | – | -28 | 31.4 | –

Row | Structure (SMILES) | Efficacy (%) [1] [%] | Curve Class [1] | IC50 [1] [µM] | Efficacy (%) [2] [%] | IC50 [2] [µM] | other results
26 | CCCCCCCCCCCC[N+](C)(C)CCOc1ccccc1.[Br-] [NCGC00091010-03] | – | – | – | -55 | 89.1 | Curve Class [2]: -3
27 | Cc1cc(O)cc(Oc2cc(C)c(C(=O)O)c(O)c2)c1 [NCGC00380115-01] | -28 | -2.4 | 56.2 | – | – | –
28 | CS(=O)(=O)O.CSc1ccc2c(c1)C(N1CCN(C)CC1)Cc1ccccc1S2 (centres unmarked) [NCGC00024665-06] | -28 | -2.4 | 56.2 | – | – | –
29 | CC(=O)NC(c1cccs1)c1cc(Br)c2cccnc2c1O (centres unmarked) [NCGC00188370-02] | – | – | – | – | – | Efficacy (%) (qHTS FP screen hits, Table S2): -40%; IC50 (qHTS FP screen hits, Table S2): 45.5 µM
30 | CCCCCCCCCCCCCCC[C@H](O)[C@@H](N)CO [NCGC00015362-05] | – | – | – | -110 | 100 | Curve Class [3]: -2.3
31 | COc1ccc(C2CC(=O)Nc3nc(N4CCCCC4)sc32)c(OC)c1.O=C(O)C(F)(F)F (centres unmarked) [NCGC00488246-02] | – | – | – | -89 | 56.2 | Curve Class [3]: -2.3
32 | Cc1ccc(C)c(SC2=NS(=O)(=O)c3cc(C(=O)Nc4ccc5ncccc5c4)ccc32)c1 [NCGC00238689-01] | – | – | – | -27 | 44.7 | Curve Class [2]: -2.4
33 | CSc1ccc(/C=C2/C(C)=C(CC(=O)O)c3cc(F)ccc32)cc1 [NCGC00161601-02] | – | – | – | -32 | 79.4 | Curve Class [3]: -2.4
34 | Cc1ccc(C)n1-c1ccc(C(=O)O)cc1.O=C(O)C(F)(F)F [NCGC00273552-01] | – | – | – | -38 | 44.7 | Curve Class [3]: -2.2
35 | O=C(O)c1ccccn1 [NCGC00165993-02] | – | – | – | -21 | 44.7 | Curve Class [2]: -2.4
36 | C=C1CCC2C(C)(C)CC(O)CC2(C)C1CCC(C)CCOC(=O)CCC(=O)O (centres unmarked) [NCGC00380160-01] | -24 | -2.4 | 39.8 | – | – | –
37 | COc1ccnc2c1CCCCC2[S+]([O-])c1nc2ccccc2[nH]1 (centres unmarked) [NCGC00253591-01] | – | – | – | -30 | 56.2 | Curve Class [3]: -2.2
38 | Fc1cc(Nc2nc(-c3ccncc3)nc3ccccc23)ccc1N1CCNCC1.O=C(O)C(F)(F)F [NCGC00345204-01] | – | – | – | -36 | 89.1 | Curve Class [3]: -2.4
39 | Cc1cc(N2CCOCC2)cc2[nH]c(-c3c(NC[C@@H](O)c4cccc(Cl)c4)cc[nH]c3=O)nc12 [NCGC00346460-05] | -28 | -1.4 | 17.8 | – | – | –
40 | O=c1oc(Cl)c(Cl)c2ccccc12 [NCGC00015369-06] | -37 | -2.2 | 31.6 | – | – | –
41 | Cc1c(C)n(Cc2ccc(-c3ccccc3C(=O)O)cc2)c2ccc(C(=O)N[C@@H](C)c3ccc([N+](=O)[O-])cc3)cc12 [NCGC00347955-01] | – | – | – | – | – | Efficacy (%) (qHTS FP screen hits, Table S2): -32%; IC50 (qHTS FP screen hits, Table S2): 23.5 µM
42 | Cn1cnc2c1c(=O)[nH]c(=O)n2C [NCGC00016023-18] | – | – | – | -74 | 89.1 | Curve Class [3]: -3
43 | N=C(N)c1ccc2c(c1)N/C(=C1/C=C(CC(=O)NC(CC(=O)O)C(=O)O)C=C(c3cc(S(N)(=O)=O)ccc3O)C1=O)N2 (centres unmarked) [NCGC00387860-01] | -31 | -1.4 | 7.1 | – | – | –
44 | COC(=O)C1=C(C)NC(C)=C(C(=O)OC)C1c1ccccc1[N+](=O)[O-] [NCGC00015748-13] | -24 | -1.2 | 11.2 | – | – | –
45 | COc1cc(/C=C/c2ccccc2)c(C(=O)O)c(O)c1CC=C(C)C [NCGC00385333-01] | -18 | -2.4 | 31.6 | – | – | –
46 | CN(C)CCCNc1cc(O)c2ncccc2c1.O=C(O)C(F)(F)F [NCGC00183792-01] | – | – | – | -32 | 56.2 | Curve Class [2]: -2.4
47 | CN(C)CC1CCn2c(c(C3=C(c4cn(C)c5ccccc45)C(=O)NC3=O)c3ccccc32)C1.Cl (centres unmarked) [NCGC00163696-04] | -28 | -2.4 | 56.2 | – | – | –
48 | Cc1ccc(C)n1-c1cnccc1C(=O)O.O=C(O)C(F)(F)F [NCGC00273496-01] | – | – | – | -39 | 44.7 | Curve Class [2]: -2.4
49 | COc1cc(N2CCC(N3CCN(C)CC3)CC2)ccc1Nc1ncc(Cl)c(Nc2ccccc2S(=O)(=O)C(C)C)n1 [NCGC00238453-07] | -24 | -2.4 | 56.2 | – | – | –
50 | O=C(O)C(F)(F)F.Oc1cc(NCCN2CCOCC2)cc2cccnc12 [NCGC00183799-01] | – | – | – | -45 | 50.1 | Curve Class [3]: -2.2

From paper PMC11249646, “Small-Molecule Disruptors of the Interaction between Calcium- and Integrin-Binding Protein 1 and Integrin αIIbβ3 as Novel Antiplatelet Agents” (ACS Pharmacology & Translational Science, 2024)
